Data published in patent publication US20160015703A1, “NANO- MIC[…] FOR […] OF AN ACTIVE INGREDIENT” (Danmarks Tekniske Universitet, priority 2013, published 2016).

Test: in vitro
Conditions: human

CN1CCCC1c1cccnc1 (stereo not shown) [HBSS with nicotine, nicotine]
Papp: 8.5 ×10⁻⁶ cm/s
